Measurements reported in patent US6821980B1, “Substituted 5-benzyl-2,4-diaminopyrimidines” (Basilea Pharmaceutica AG, priority 1999, dated 2004).
pIC50: −log10 of the molar value. In brackets after ≈: the same amount, converted by molar mass. Like-named read-outs stand apart in the source and are kept apart here.

Key:
[1] = biological target: T1, purified DHFR of strain Sp1/1 of Streptococcus pneumoniae (Streptococcus pneumoniae serotype 4, UniProt Q54801); assay type: biochemical; details: IC50 against purified DHFR of strain Sp1/1
T1 sequence (Q54801 1-168 I100L): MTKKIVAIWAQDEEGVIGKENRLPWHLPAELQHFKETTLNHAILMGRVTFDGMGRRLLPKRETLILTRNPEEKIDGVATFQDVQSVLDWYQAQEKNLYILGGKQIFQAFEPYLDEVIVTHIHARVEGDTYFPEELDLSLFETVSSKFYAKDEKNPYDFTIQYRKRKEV

[2] = tested on: Staphylococcus aureus 101; assay: MIC against Staphylococcus aureus 101; assay type: cell-based; details: Staphylococcus aureus 101, MRSA- and trimethoprim-resistant, clinical isolate; for MIC: read-out: MIC Sa101
[3] = biological target: purified DHFR of strain 157/4696 of Staphylococcus aureus (Staphylococcus aureus, UniProt P13955); assay: biochemical
Sequence of purified DHFR of strain 157/4696 of Staphylococcus aureus (P13955 whole entry): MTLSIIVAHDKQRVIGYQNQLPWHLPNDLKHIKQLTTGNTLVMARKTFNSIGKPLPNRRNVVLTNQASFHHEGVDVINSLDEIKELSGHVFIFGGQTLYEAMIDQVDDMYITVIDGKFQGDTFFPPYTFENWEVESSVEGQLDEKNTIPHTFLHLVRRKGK

[4] = tested on: Streptococcus pneumoniae 1/1; assay: MIC against Streptococcus pneumoniae 1/1; assay type: cell-based
[5] = Table 2, Streptococcus pneumoniae 1/1, trimethoprim- and penicillin-resistant, serotype 6, clinical isolate, read-out: MIC Sp1/1
[6] = Table 1, Streptococcus pneumoniae 1/1, trimethoprim- and penicillin-resistant, serotype 6, clinical isolate, read-out: MIC Sp1/1

Structure (SMILES) | pIC50 ([1]; Table 2) | MIC ([2]; Table 2) [µg/mL] | pIC50 [3] | MIC [4, 5] [µg/mL] | pIC50 ([1]; Table 1) | MIC ([2]; Table 1) [µg/mL] | MIC [4, 6] [µg/mL] | MIC Sa101 ([2]; Table 2) [µg/mL] | pIC50 ([3]; Table 2, IC50 against purified DHFR of strain 157/4696 (highly trimethoprim-resistant; clinical isolate), read-out: DHFR Sa1) | MIC Sp1/1 ([4]; Table 2, Streptococcus pneumoniae 1/1, trimethoprim- and penicillin-resistant, serotype 6, clinical isolate) [µg/mL] | MIC ([4]; Streptococcus pneumoniae, 1/1, read-out: MIC Sp1/1) [µg/mL]
CCOc1cc(Cc2cnc(N)nc2N)cc(OS(=O)(=O)N(C)C2CC2)c1-c1ccc(N)c(F)c1 [Example 28-c, N-Cyclopropyl-N-methyl-sulphamic acid 4′-amino-4-(2,4-diamino-pvrimidin-5-ylmethyl)-6-ethoxy-3′-fluoro-biphenyl-2-yl ester] | 7.74 | 2 (≈ 3.98 µM) | 6.62 | 1 (≈ 1.99 µM) | – | – | – | – | – | – | –
CCOc1cc(Cc2cnc(N)nc2N)cc(OCC)c1-c1ccc(CN(C)CCF)c(F)c1 [Example 04-ad, 5-(2,6-Diethoxy-3′-fluoro-4′-{[N-(2-fluoro-ethyl)-N-methyl-amino]-methyl}-biphenyl-4-ylmethyl)-pyrimidine-2,4-diamine] | 6.77 | 8 (≈ 17 µM) | 5.57 | 4 (≈ 8.48 µM) | – | – | – | – | – | – | –
CCOc1cc(Cc2cnc(N)nc2N)cc(OS(=O)(=O)N(C)C2CC2)c1-c1cccc(N)c1 [Example 19-g, N-Cclopropyl-N-methyl-sulphamic acid 3′-amino-4-(2,4-diamino-Ryrimidin-5-ylmethyl)-6-ethoxy-biphenyl-2-yl ester] | 8.17 | 1 (≈ 2.06 µM) | 7.25 | 1 (≈ 2.06 µM) | – | – | – | – | – | – | –
CCOc1cc(Cc2cnc(N)nc2N)cc(OS(=O)(=O)C(C)CC)c1-c1cccc(N)c1 (stereo not shown) [Example 14g, Butane-2-sulphonic acid 3′-amino-4-(2,4-diamino-pvrimidin-5-ylmethyl)-6-ethoxy-biphenyl-2-yl ester] | – | – | 7.52 | – | 8.43 | 1 (≈ 2.12 µM) | 1 (≈ 2.12 µM) | – | – | – | –
CCOc1cc(Cc2cnc(N)nc2N)cc(OS(=O)(=O)C2CC2)c1-c1ccc(CN2CCOCC2)c(N)c1 [Example 34-e, Cyclopropanesulphonic acid 3′-amino-4-(2,4-diamino-pyrimidin-5-ylmethyl)-6-ethoxy-4′-morpholin-4-ylmethyl-biphenyl-2-yl ester] | 7.82 | 4 (≈ 7.21 µM) | 6.85 | 4 (≈ 7.21 µM) | – | – | – | – | – | – | –
CCOc1cc(Cc2cnc(N)nc2N)cc(OS(=O)(=O)CC(C)(C)C)c1-c1ccc(OC)c(N)c1 [Example 37-b, 2,2-Dimethyl-propane-1-sulphonic acid 3′-amino-4-(2,4-diamino-pyrimidin-5-ylmethyl)-6-ethoxy-4′-methoxy-biphenyl-2-yl ester] | 8.77 | 4 (≈ 7.76 µM) | 6.59 | 0.25 (≈ 0.485 µM) | – | – | – | – | – | – | –
CCOc1cc(Cc2cnc(N)nc2N)cc(OS(=O)(=O)C2CCC2)c1-c1ccc(N)c(C)c1 [Example 40c, Cyclobutane-sulphonic acid 4′-amino-4-(2,4-diamino-pyrimidin-5-ymethyl)-6-ethoxy-3′-methyl-biphenyl-2-yl ester] | – | – | 7.43 | – | 7.72 | 1 (≈ 2.07 µM) | 0.5 (≈ 1.03 µM) | – | – | – | –
CCOc1cc(Cc2cnc(N)nc2N)cc(OS(=O)(=O)CC(C)C)c1-c1ccc(N)c(F)c1 [Example 36-b, 2-Methyl-propane-1-sulphonic acid 4′-amino-4-(2,4-diamino-pyrimidin-5-ylmethyl)-6-ethoxy-3′-fluoro-biphenyl-2-yl ester] | 8.24 | 8 (≈ 16.3 µM) | 6.64 | 0.5 (≈ 1.02 µM) | – | – | – | – | – | – | –
CCOc1cc(Cc2cnc(N)nc2N)cc(OCC2CC2)c1-c1ccc(CN2CCOCC2)s1 [Example 23-, 5-[3-Cyclopropylmethoxy-5-ethoxy-4-(5-morpholin-4-ylmethyl-thiophen-2-yl)-benzyl]-pyrimidine-2,4-diamine] | 8.10 | 8 (≈ 16.1 µM) | 5.59 | 1 (≈ 2.02 µM) | – | – | – | – | – | – | –
CCOc1cc(Cc2cnc(N)nc2N)cc(OCC)c1-c1ccc2ncccc2c1 [Example 04-m, 5-(3,5-Diethoxy-4-quinolin-6-yl-benzyl)-pyrimidine-2,4-diamine] | 7.14 | 8 (≈ 19.3 µM) | 5.74 | 8 (≈ 19.3 µM) | – | – | – | – | – | – | –
CCCS(=O)(=O)Oc1cc(Cc2cnc(N)nc2N)cc(OCC)c1-c1ccc(CN(C)C)c(N)c1 [Example 32-g, Propane-1-sulphonic acid 3′-amino-4-(2,4-diamino-pyrimidin-5-ylmethyl)-6-ethoxy-4′-dimethylaminomethyl-4-ylmethyl-biphenyl-2-yl ester] | 7.12 | – | – | – | – | – | – | 8 (≈ 15.5 µM) | 7.17 | 4 (≈ 7.77 µM) | –
CCOc1cc(Cc2cnc(N)nc2N)cc(OCC)c1-c1ccc(OC)c(N)c1 [Example 04-i, 5-(3′-Amino-2,6-diethoxy-4′-methoxy-biphenyl-4-ylmethyl)-pyrimidine-2,4-diamine] | 7.37 | 8 (≈ 19.5 µM) | 5.92 | 4 (≈ 9.77 µM) | – | – | – | – | – | – | –
CCOc1cc(Cc2cnc(N)nc2N)cc(OS(=O)(=O)N(C)CC)c1-c1ccc(NC)cc1 [Example 26-b, N-Ethyl-N-methyl-sulphamic acid 4-(2,4-diamino-pvrimidin-5-ylmethyl)-6-ethoxy-4′-methylamino-biphenyl-2-yl ester] | 8.72 | 1 (≈ 2.06 µM) | 6.77 | 1 (≈ 2.06 µM) | – | – | – | – | – | – | –
CCOc1cc(Cc2cnc(N)nc2N)cc(OCC)c1-c1ccc(C)c(N)c1 [Example 02-ad, 5-(3′-Amino-2,6-diethoxy-4′-methyl-biphenyl-4-ylmethyl)-pyrimidine-2,4-diamine] | 7.07 | 8 (≈ 20.3 µM) | 5.70 | 4 (≈ 10.2 µM) | – | – | – | – | – | – | –
CCOc1cc(Cc2cnc(N)nc2N)cc(OCC)c1-c1ccc(N)nc1 [Example 04-q, 5-[4-(6-Amino-pyridin-3-yl)-3,5-diethoxy-benzyl]-pyrimidine-2,4-diamine] | 7.16 | 8 (≈ 21 µM) | 5.72 | 4 (≈ 10.5 µM) | – | – | – | – | – | – | –
CCOc1cc(Cc2cnc(N)nc2N)cc(OS(=O)(=O)N(C)C)c1-c1ccc(CN2CCOCC2)c(N)c1 [Example 30-a, Dimethylsulphamic acid 3′-amino-4-(2,4-diamino-pyrimidin-5-ylmethyl)-6-ethoxy-4′-morpholin-4-ylmethyl-biphenyl-2-yl ester] | 8.35 | 2 (≈ 3.59 µM) | 7.06 | 2 (≈ 3.59 µM) | – | – | – | – | – | – | –
CCOc1cc(Cc2cnc(N)nc2N)cc(OS(=O)(=O)C2CC2)c1-c1cccc(N)c1 [Example 34-a, Cyclopropanesulphonic acid 3′-amino-4-(2,4-diamino-pyrimidin-5-ylmethyl)-6-ethoxy-bilphenyl-2-yl ester] | 8.04 | 2 (≈ 4.39 µM) | 6.57 | 1 (≈ 2.2 µM) | – | – | – | – | – | – | –
CCOc1cc(Cc2cnc(N)nc2N)cc(OS(=O)(=O)N(C)CC)c1-c1ccc(N)c(C)c1 [Example 27-b, N-Ethyl-N-methyl-sulphamic acid 4′-amino-4-(2,4-diamino-vyrimidin-5-ylmethyl)-6-ethoxy-3′-methyl-biphenyl-2-yl ester] | 7.85 | 2 (≈ 4.11 µM) | 6.72 | 1 (≈ 2.06 µM) | – | – | – | – | – | – | –
CCOc1cc(Cc2cnc(N)nc2N)cc(OS(=O)(=O)N(C)C)c1-c1ccc(S(C)(=O)=O)cc1 [Example 60-, Dimethylsulphamic acid 4-(2,4-diamino-pyrimidin-5-ylmethyl)-6-ethoxy-4′-methanesulphonyl-biphenyl-2-yl ester] | 7.06 | 4 (≈ 7.67 µM) | 6.55 | 8 (≈ 15.3 µM) | – | – | – | – | – | – | –
CCOc1cc(Cc2cnc(N)nc2N)cc(OCC)c1-c1ccc(C=O)cc1 [Example 02-ag, 4′-(2,4-Diamino-pyrimidin-5-ylmetyl)-2′,6′-diethoxy-biphenyl-4-carbaldehyde] | 6.89 | 8 (≈ 20.4 µM) | 5.66 | 8 (≈ 20.4 µM) | – | – | – | – | – | – | –
CCOc1cc(Cc2cnc(N)nc2N)cc(OCC(C)(C)/C=C/C#N)c1-c1ccc(O)cc1 [Example 08-b, (E)-5-[4-(2,4-Diamino-pyrimidin-5-ylmethyl)-6-ethoxy-4′-hydroxy-biphenyl-2-yloxy]-4,4-dimethyl-pent-2-ene-nitrile] | 7.42 | 8 (≈ 17.4 µM) | 6.02 | – | – | – | – | – | – | – | 2 (≈ 4.35 µM)
CCOc1cc(Cc2cnc(N)nc2N)cc(OCC)c1-c1ccc2c(c1)OCCO2 [Example 02-x, 5-[4-(2,3-Dihydro-benzo[1,4]dioxin-6-yl)-3,5-diethoxy-benzyl]-pyrimidine-2,4-diamine] | 7.12 | 8 (≈ 18.9 µM) | 5.63 | 2 (≈ 4.73 µM) | – | – | – | – | – | – | –
CCOc1cc(Cc2cnc(N)nc2N)cc(OCC)c1-c1ccc(N)c(C#N)c1 [Example 04-h, 4-Amino-4′-(2,4-diamino-pyrimidin-5-ylmethyl)-2′,6′diethoxy-biphenyl-3-carbonitrile] | 7.38 | 4 (≈ 9.89 µM) | 6.00 | 2 (≈ 4.94 µM) | – | – | – | – | – | – | –
CCOc1cc(Cc2cnc(N)nc2N)cc(OCC2CC2)c1-c1ccc(N)c(C)c1 [Example 11-a] | 7.74 | 8 (≈ 19.1 µM) | 5.74 | 1 (≈ 2.38 µM) | – | – | – | – | – | – | –
CCOc1cc(Cc2cnc(N)nc2N)cc(OS(=O)(=O)N(C)CC)c1-c1cccc(N)c1 [Example 19-f, N-Ethyl-N-methyl-sulphamic acid 3′-amino-4-(2,4-diamino-vyrimidin-5-ylmethyl)-6-ethoxy-biphenyl-2-yl ester] | 8.21 | 1 (≈ 2.12 µM) | 7.09 | 1 (≈ 2.12 µM) | – | – | – | – | – | – | –
